Measured values: US10294226B2, “Small molecule inhibitors of the JAK family of kinases” (Janssen Pharmaceutica NV, priority 2016, dated 2019)
Values after ≈ are worked out from the molar mass of the structure shown. Read-outs that look alike come from different tables or passages of the source.

How the values were obtained:
[1] = In vivo oral (p.o.) dosing, plasma and colon concentrations (Protocols 1 and 2); design: species or system female C57BL/6 mice; conditions: mice, 25 mg/kg p.o.
Protocol: These protocols are described below under the heading In vivo Studies. Three non-fasted female C57BL/6 mice were orally administered test compound at a dose of 25 mg/kg p.o. as a solution in 20% hydroxypropyl-beta-cyclodextrin (HPβCD) at a dose volume of 5 mL/kg. Blood samples were collected at 0.5, 2, and 4 h post dose via retro-orbital bleed or venipuncture of the dorsal metatarsal vein. Blood samples were collected into tubes containing anticoagulant (Heparin-Na) and placed on wet ice. […] Colon samples were collected at 4 h post dose. […] The colon was further washed by putting it in 5 mL of saline and shaken for 5 seconds. The colon sample was then patted dry, weighed, and homogenized as 1 part tissue (g) to 4 parts HPLC grade water (mL). Concentrations of the compound in plasma and colon homogenate were determined using a qualified liquid chromatography-triple quadrupole mass spectrometry (LC-MS/MS) method. […] Three non-fasted female C57BL/6 mice were orally administered test compound at a dose of 25 mg/kg p.o. as a solution in 20% HPβCD at a dose volume of 5 mL/kg. Blood samples were collected at 0.5, 2, and 4 h post dose via retro-orbital bleed or dorsal metatarsal vein. Blood samples were collected into tubes containing anticoagulant (Heparin-Na) and placed on wet ice. […] Colon samples were collected at 4 h post dose. […] The colon was further washed by putting it in 5 mL of saline and shaken for 5 seconds. The colon sample was then patted dry, weighed, and homogenized as 1 part tissue (g) to 4 parts HPLC grade water (mL). Concentrations of the compound in plasma and colon homogenate were determined using a qualified liquid chromatography-triple quadrupole mass spectrometry (LC-MS/MS) method.

physchem = conditions: thermodynamic from solid
P-gp (MDR1) = test: MDCK-MDR1 permeability assay; type: in vitro ADME; conditions: dog; for Papp A→B at 60 min, 5 μM: apical to basolateral; for Papp B→A at 60 min, 5 μM: MDCK-MDR1, pH 7.4, basolateral to apical; for efflux ratio at 60 min, 5 μM: pH 7.4, MDCK-MDR1, @ 5 μM, read-out: Papp(B-A)/Papp(A-B) efflux ratio
Protocol: (§5) Permeability measurements were conducted according to the Cyprotex protocol using the MDCK-MDR1 cell line obtained from the NIH (Rockville, Md., USA). […] The cells in this assay form a cohesive sheet of a single cell layer filing the surface area of the culture dish, also known as a confluent monolayer, and on day four the test compound was added to the apical side of the membrane and the transport of the compound across the monolayer was monitored over a time period of 60 min.
(§6) Test compounds were dissolved in DMSO at a concentration of 10 mM. The dosing solutions were prepared by diluting test compound with assay buffer (Hanks Balanced Salt Solution), pH 7.4, at a final concentration of 5 μM. For assessment of apical to basolateral (“A-B”) permeability, buffer was removed from the apical compartment and replaced with test compound dosing solution with or without the permeability glycoprotein (“PgP”, “P-gP”, “Pgp” or “P-gp”) inhibitor elacridar (2 μM). For assessment of basolateral to apical (“B-A”) permeability, buffer was removed from the companion plate and replaced with test compound dosing solution. Incubations were carried out in duplicate at 37° C. in an atmosphere of 5% CO2 with a relative humidity of 95%. […] After incubation for 60 minutes, apical and basolateral samples were diluted and test compounds quantified by LC/MS/MS using an 8-point calibration in the range 0.0039 to 3 μM with appropriate dilution of the samples (receiver dilution factor=1; donor and C0 dilution factor=10). The permeability coefficient (Papp) for each compound was calculated from the following equation: Papp=(dQ/dt)/(C0×S), where dQ/dt is the rate of permeation of the drug across the cells, C0 is the donor compartment concentration at time zero, and S is the area of the cell monolayer.
(§7) The percent recovery was measured for all incubation conditions.
(§8) Papp(A-B) gives an indication of permeation extent across the cells in this assay, which is envisaged to model the transcellular transport across Pgp-expressing cells, such as Pgp-expressing gastrointestinal tract cells.
(§9) The integrity of each monolayer was monitored by examining the permeation of lucifer yellow by fluorimetric analysis.

[2] = MDCK-MDR1 permeability assay; type: in vitro ADME; conditions: MDCK-MDR1, pH 7.4, @ 5 μM, apical to basolateral, with P-gp inhibitor elacridar (2 μM); read-out: MDCK-MDR1 P^eapp(A-B)
Protocol: as §5, §6, §7, §8, §9

Tyk2-JH1JH2 = Tyk2-JH1JH2 (Homo sapiens (Human), UniProt P29597, C1142A/C936A); test: Enzymatic inhibition assay (HTMS); type: biochemical; conditions: 50 μM ATP; read-out: Tyk2_I_JH1JH2 IC50
Source text: (§1) JAK1-JH1JH2 (574-1154 with a His-GST Tag and a C-terminal tev (ENLYFQ-G) cleavage site), JAK3-JH1JH2 (512-1124 with a GST Tag and a C-terminal tev (ENLYFQ-G) cleavage site), and Tyk2-JH1JH2 (8H_tev_580-1182-C936A-C1142A with a C-terminal tev (ENLYFQ-G) cleavage site) were purified internally. […] LC/MS grade water and acetonitrile (ACN), were purchased from HoneyWell, Burdick & Jackson (Muskegon, Mich., USA). Dimethylsulfoxide 99.8% (DMSO) and trifluoroacetic acid 99.5% (TFA) were purchased from EMD Chemical (Gibbstown, N.J., USA). Adenosine triphosphate (ATP), 4-morpholinepropanesulfonic acid (MOPS), magnesium chloride (MgCl2), ethylenediaminetetraacetic acid (EDTA), dithiothreitol (DTT), formic acid>95% (FA) and Tween-20 were purchased from Sigma (St Louis, Mo., USA). 384-well polypropylene plates, Cat#781280 were purchased from Greiner (Monroe, N.C.), RapidFire™ cartridge A C4 Column (Agilent Technologies, Santa Clara, Calif.).
(§2) The HTMS experiments were performed in positive ionization mode on a RapidFire 300 instrument (Agilent Technologies, Santa Clara, Calif.), coupled with an ABSiex QTrap 4000 system with an Electrospray Ionization source (RF-MS) (Concord, ON, Canada). […] The entire system was operated using the RapidFire software interfaced with Analyst software for the mass spectrometer.
(§3) 11-point dosing series were made for each compound by serially diluting 1:3 or 1:4 in DMSO, with point 12 being a DMSO control. From the serial dilution plates, sample was transferred to a 384 wells assay plate (#781280, Greiner, Monroe, N.C.) using Labcyte Echo (Sunnyvale, Calif.), or Biosero ATS (San Diego, Calif.). The compounds were tested in duplicate. Column 12 was used for positive controls, and column 24 contained negative controls with no enzyme added. A compound from our internal collection, with inhibitory activity for JAK isoforms, was used as a reference compound. The final concentration of DMSO was ≤0.25% in a 20 μL reaction. The enzyme reaction was initiated by the addition of 10 μL of enzyme and ATP mixture to 10 μL of substrate solution prepared in reaction buffer (50 mM MOPS pH 7.5, 10 mM MgCl2, 1 mM EDTA, 2 mM DTT, 0.002% Tween-20). The Tyk2 enzyme was pre-incubated with 2 mM ATP for 30 min prior to the reaction initiation. Immediately after the addition of the enzyme to the reaction mixture, the plate was centrifuged at 1000 rpm for 1 minute and incubated at 25° C. for 45 minutes for JAK3 and 90 minutes for JAK1, JAK2 and Tyk2. The reaction was quenched by the addition of 20 μL of 0.5% TFA containing 0.15 μM of internal standard peptide using Multidrop Combi reagent dispenser (Thermo Scientific, Waltham, Mass.). […] After the quench, the assay plate was centrifuged at 3000 rpm for 3 minutes and sealed with pierceable aluminum foil (Cat#06644-001, Agilent) using a PlateLoc (Agilent Technologies, Santa Clara, Calif.). The plates then were transferred on to the RapidFire for the MS analysis. Compound inhibition was assessed by a decrease of the phosphorylated product levels in sample wells compared to the non-inhibited enzyme reaction.
(§4) The sample analysis on the RapidFire was performed using a mobile phase A1 consisting of Water/TFA/FA (100:0.01:0.1, v/v/v), a mobile phase B1 consisting of ACN/Water/TFA/FA (80:20:0.01:0.1, v/v/v). […] The samples were aspirated directly from the 384-well assay plate and delivered onto RF-MS microscale solid-phase C4 extraction cartridge (Type A). The undesired component such as salt, cofactor, detergent and large protein were washed out and the retained analytes (substrate, product and IS) were coeluted directly onto the AB Siex Qtrap 4000 system.

JAK3-JH1JH2 = JAK3-JH1JH2 (Homo sapiens (Human), UniProt P52333); test: Enzymatic inhibition assay (HTMS); type: biochemical; conditions: 150 μM ATP; read-out: JAK3_I_JH1JH2 IC50
Source text: as §1, §2, §3, §4

JAK1-JH1JH2 = JAK1-JH1JH2 (Homo sapiens (Human), UniProt P23458); test: Enzymatic inhibition assay (HTMS); type: biochemical; conditions: 12.5 μM ATP; read-out: JAK1_JH1JH2 IC50
Source text: as §1, §2, §3, §4

IL-2 pSTAT5 (JAK1/JAK3) = IL-2 pSTAT5 (JAK1/JAK3) cellular assay, AlphaLISA in PBMCs; type: cell-based; conditions: PBMC, IL-2 5 ng/mL
Protocol: The AlphaLISA assay (based on Alpha Technology from PerkinElmer) was performed by first plating freshly thawed PBMCs (Biological Specialty Corporation) in 384-well plates at 30,000 cells per 4 μL per well in HBSS (Hanks' Balanced Salt Solution) containing 0.1% IgG (immunoglobulin G)-free, protease-free BSA (bovine serum albumin) (Jackson ImmunoResearch Cat. No. 001-000-161). The cells were then treated with 2 μL/well of compounds diluted in DMSO at half-log titrated concentrations, with a highest test concentration of 10 μM and 0.5% final DMSO concentration, for thirty minutes at 37° C. […] The cellular reactions were terminated by the addition of 2 μL/well of lysis buffer (PerkinElmer Cat. No. ALSU-PST5-A10K) followed by an incubation of five minutes at room temperature. 5 μL/well of acceptor mix (PerkinElmer Cat. No. ALSU-PST5-A10K) was added to the cells and incubated in the dark for one hour at room temperature. Then, 5 μL/well of donor mix (PerkinElmer Cat. No. ALSU-PST5-A10K) was added to the cells and incubated in the dark overnight at room temperature. Finally, the plates were read on a PerkinElmer EnVision for detection of the time-resolved fluorescence signal. The percentage of IL-2-dependent pSTAT5 inhibition was determined at the compound test concentrations; and for each compound, a dose curve was generated and the IC50 was calculated. Compound IC50 was calculated by nonlinear regression, sigmoidal dose response analysis of the half-log dilution titration curve of the compound concentration vs. Alpha signal. The acronym “Alpha” stands for amplified luminescent proximity homogeneous assay; the Alpha signal is a luminescent/fluorescent signal.

IFNα pSTAT4 (JAK1/TYK2) = IFNα pSTAT4 (JAK1/TYK2) cellular assay, AlphaLISA in PBMCs; type: cell-based; conditions: PBMC, IFNα 4 ng/mL
Protocol: The AlphaLISA assay (based on Alpha Technology from PerkinElmer) was performed by first plating freshly thawed PBMCs (Biological Specialty Corporation) in 384-well plates at 100,000 cells per 6 μL per well in DMEM (Dulbecco's Modified Eagle Medium) containing 10% FBS (fetal bovine serum) and 1,000 I.U./mL penicillin and 1,000 μg/mL streptomycin. The cells were then treated with 2 μL/well of compounds diluted in DMSO at half-log titrated concentrations, with a highest test concentration of 10 μM and 0.5% final DMSO concentration, for thirty minutes at 37° C. Next, the cells were stimulated with 2 μL/well of IFNα (PBL Assay Science Cat. No. 11101-2) at 4 ng/mL for thirty minutes at 37° C. The cellular reactions were terminated by the addition of 2 μL/well of lysis buffer (PerkinElmer Cat. No. ALSU-PST4-A10K) followed by an incubation of five minutes at room temperature. 4 μL/well of acceptor mix (PerkinElmer Cat. No. ALSU-PST4-A10K) was added to the cells and incubated in the dark for one hour at room temperature. Then, 4 μL/well of donor mix (PerkinElmer Cat. No. ALSU-PST4-A10K) was added to the cells and incubated in the dark overnight at room temperature. Finally, the plates were read on a PerkinElmer EnVision for detection of the time-resolved fluorescence signal. The percentage of IFNα-dependent pSTAT4 inhibition was determined at the compound test concentrations; and for each compound, a dose curve was generated and the IC50 was calculated. Compound IC50 was calculated by nonlinear regression, sigmoidal dose response analysis of the half-log dilution titration curve of the compound concentration vs. Alpha signal. The term “Alpha” is defined in the immediately preceding cellular assay description.

[3] = pH 6.5
[4] = MDCK-MDR1, pH 7.4, @ 5 μM, without elacridar, read-out: MDCK-MDR1 Papp(A-B)
[5] = MDCK-MDR1, pH 7.4, with elacridar 2 μM, @ 5 μM, with P-gp inhibitor elacridar (2 μM), read-out: MDCK-MDR1 P^eapp(A-B)

Chain of JAK1-JH1JH2 (P23458 574-1154): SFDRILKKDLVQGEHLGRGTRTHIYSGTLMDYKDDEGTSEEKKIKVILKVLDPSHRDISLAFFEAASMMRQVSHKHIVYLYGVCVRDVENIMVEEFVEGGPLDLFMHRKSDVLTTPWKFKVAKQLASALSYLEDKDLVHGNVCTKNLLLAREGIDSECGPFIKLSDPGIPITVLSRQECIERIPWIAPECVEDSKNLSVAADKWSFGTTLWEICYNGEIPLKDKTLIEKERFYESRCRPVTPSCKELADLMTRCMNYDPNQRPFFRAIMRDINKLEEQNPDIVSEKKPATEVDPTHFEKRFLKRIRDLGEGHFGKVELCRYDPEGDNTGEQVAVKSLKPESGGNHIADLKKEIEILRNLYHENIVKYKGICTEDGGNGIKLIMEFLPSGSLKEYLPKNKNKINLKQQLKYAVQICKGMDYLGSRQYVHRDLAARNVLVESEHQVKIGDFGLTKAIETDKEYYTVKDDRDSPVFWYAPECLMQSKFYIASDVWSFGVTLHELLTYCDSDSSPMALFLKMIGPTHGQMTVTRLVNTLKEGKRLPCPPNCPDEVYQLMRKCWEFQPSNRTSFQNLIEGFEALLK
Chain of Tyk2-JH1JH2 (P29597 580-1182 C936A/C1142A): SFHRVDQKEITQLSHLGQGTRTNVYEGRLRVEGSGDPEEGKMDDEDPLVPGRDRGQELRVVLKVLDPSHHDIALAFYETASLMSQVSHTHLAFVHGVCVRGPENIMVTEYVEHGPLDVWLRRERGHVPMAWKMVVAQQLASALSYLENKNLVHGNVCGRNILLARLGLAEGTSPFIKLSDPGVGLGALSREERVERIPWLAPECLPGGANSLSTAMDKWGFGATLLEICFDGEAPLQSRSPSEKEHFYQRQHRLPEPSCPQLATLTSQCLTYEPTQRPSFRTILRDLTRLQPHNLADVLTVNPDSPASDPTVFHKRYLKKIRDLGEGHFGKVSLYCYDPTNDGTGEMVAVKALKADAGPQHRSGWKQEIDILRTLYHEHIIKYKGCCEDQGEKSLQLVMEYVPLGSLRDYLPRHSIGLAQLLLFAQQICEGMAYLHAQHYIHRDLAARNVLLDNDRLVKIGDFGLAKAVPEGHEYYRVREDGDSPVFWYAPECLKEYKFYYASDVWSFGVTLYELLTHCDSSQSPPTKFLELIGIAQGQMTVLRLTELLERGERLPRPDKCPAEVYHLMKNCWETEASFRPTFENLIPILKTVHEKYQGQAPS
Chain of JAK3-JH1JH2 (P52333 512-1124): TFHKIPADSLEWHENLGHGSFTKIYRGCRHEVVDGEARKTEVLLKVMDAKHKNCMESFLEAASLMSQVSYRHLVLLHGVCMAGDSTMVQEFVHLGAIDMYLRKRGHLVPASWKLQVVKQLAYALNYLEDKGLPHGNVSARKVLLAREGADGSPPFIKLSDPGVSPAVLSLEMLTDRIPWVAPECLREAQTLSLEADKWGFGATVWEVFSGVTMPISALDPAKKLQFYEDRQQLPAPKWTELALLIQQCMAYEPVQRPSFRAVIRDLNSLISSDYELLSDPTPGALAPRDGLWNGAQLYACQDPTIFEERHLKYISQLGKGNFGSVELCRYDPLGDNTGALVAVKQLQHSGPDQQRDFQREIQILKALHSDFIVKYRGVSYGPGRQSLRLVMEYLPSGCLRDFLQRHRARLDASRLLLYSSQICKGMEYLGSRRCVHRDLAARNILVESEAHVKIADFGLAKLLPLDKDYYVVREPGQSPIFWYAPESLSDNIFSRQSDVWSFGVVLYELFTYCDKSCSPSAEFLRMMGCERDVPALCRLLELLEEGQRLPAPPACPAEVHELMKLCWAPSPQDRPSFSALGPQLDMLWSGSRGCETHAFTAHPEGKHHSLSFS

N#CC[C@H]1CC[C@H](n2c(CO)nc3cnc4[nH]ccc4c32)CC1 [B]
Plasma Concentration After p.o. Dosing, Mean ([1]; Time = 0.5 h): 352.7 ng/mL
Plasma Concentration After p.o. Dosing, Mean ([1]; Time = 2 h): 66.3 ng/mL
Colon Concentration After p.o. Dosing, Mean ([1]; Time = 4 h): 6076.7 ng/g
Plasma Concentration After p.o. Dosing, Mean ([1]; Time = 4 h): 11.3 ng/mL
solubility (physchem; pH 6.5, fassif): 75 µM (≈ 23.2 µg/mL)
solubility (physchem; simulated gastric fluid): > 400 µM
Papp A→B at 60 min, 5 μM (P-gp (MDR1); [4]): 0.4 ×10⁻⁶ cm/s
Papp B→A at 60 min, 5 μM (P-gp (MDR1); @ 5 μM): 23.5 ×10⁻⁶ cm/s
efflux ratio at 60 min, 5 μM (P-gp (MDR1)): 59
Papp A→B [2]: 1.7 ×10⁻⁶ cm/s

N#CC[C@H]1CC[C@H](n2c(CC(=O)Nc3cc[nH]n3)nc3cnc4[nH]ccc4c32)CC1 [Ex. 11, 2-(1-((1r,4r)-4-(Cyanomethyl)cyclohexyl)-1,6-dihydroimidazo[4,5-d]pyrrolo[2,3-b]pyridin-2-yl)-N-(1H-pyrazol-3-yl)acetamide]
IC50 (Tyk2-JH1JH2): 1.5 nM
IC50 (JAK3-JH1JH2): 30.3 nM
IC50 (JAK1-JH1JH2): 0.4 nM
IC50 (IL-2 pSTAT5 (JAK1/JAK3)): 49.1 nM
IC50 (IFNα pSTAT4 (JAK1/TYK2)): 96.5 nM
Papp A→B at 60 min, 5 μM (P-gp (MDR1); [5]): 0.8 ×10⁻⁶ cm/s
SIF solubility [3]: >400 µM

Cn1cc(NC(=O)Cc2nc3cnc4[nH]ccc4c3n2[C@H]2CC[C@H](CC#N)CC2)cn1 [Ex. 9, 2-(1-((1r,4r)-4-(Cyanomethyl)cyclohexyl)-1,6-dihydroimidazo[4,5-d]pyrrolo[2,3-b]pyridin-2-yl)-N-(1-methyl-1H-pyrazol-4-yl)acetamide]
IC50 (Tyk2-JH1JH2): 4.7 nM
IC50 (JAK3-JH1JH2): 79.9 nM
IC50 (JAK1-JH1JH2): 0.2 nM
IC50 (IL-2 pSTAT5 (JAK1/JAK3)): 11.2 nM
IC50 (IFNα pSTAT4 (JAK1/TYK2)): 35.9 nM
Papp A→B at 60 min, 5 μM (P-gp (MDR1); [5]): 0.6 ×10⁻⁶ cm/s
SIF solubility [3]: >400 µM

Cc1nc2cnc3[nH]ccc3c2n1[C@H]1CC[C@H](CC#N)CC1 [A]
Plasma Concentration After p.o. Dosing, Mean ([1]; Time = 0.5 h): 347.0 ng/mL
Plasma Concentration After p.o. Dosing, Mean ([1]; Time = 2 h): 69.1 ng/mL
Colon Concentration After p.o. Dosing, Mean ([1]; Time = 4 h): 895.0 ng/g
Plasma Concentration After p.o. Dosing, Mean ([1]; Time = 4 h): 84.5 ng/mL
solubility (physchem; pH 6.5, fassif): > 400 µM
solubility (physchem; simulated gastric fluid): > 400 µM
Papp A→B at 60 min, 5 μM (P-gp (MDR1); [4]): 1.3 ×10⁻⁶ cm/s
Papp B→A at 60 min, 5 μM (P-gp (MDR1); @ 5 μM): 55.3 ×10⁻⁶ cm/s
efflux ratio at 60 min, 5 μM (P-gp (MDR1)): 43
Papp A→B [2]: 22 ×10⁻⁶ cm/s
